Experimental data: US20250032651A1, “[177LU] LUTETIUM-PSMA I&T COMPOSITION AND DOSIMETRY, KIT, METHOD OF MAKING, AND METHOD OF USING THEREOF” (Curium US LLC, priority 2022, published 2025)

Experiment: Normal organ dosimetry Cycle 1: SPECT/CT, TIACs, OLINDA 2.2.3 absorbed radiation dose
Format: in vivo, human
Details: for Absorbed Dose, Mean / Absorbed Dose, max / Absorbed Dose, median / Absorbed Dose, min: Cycle 1, n = 26
Experimental: This Example presents the biodistribution, dosimetry, and pharmacokinetics (PK) results of a PK/Dosimetry sub-study performed as part of a Phase III trial. Twenty-seven (27) patients were administered a target activity of 7.4±10% GBq of ^177Lu-PSMA-I&T and underwent single photon emission computed tomography (SPECT)/computed tomography (CT) imaging at four timepoints (4 h, 24 h, 48 h, and 168 h). Image data was analysed to compute time-activity curves (TACs) and subsequently time-integrated activity coefficients (TIACs) in each organ of interest and in organs showing appreciable and meaningful ^177Lu-PSMA-I&T activity. Organ Level Internal Dose Assessment (OLINDA 2.2.3) was used to compute organ and whole body absorbed radiation doses for each patient.
All participating sites underwent a rigorous site setup process during which all dose calibrators, scanners, and gamma counters used in the sub-study were calibrated. Sites were allowed to enroll patients in the sub-study only after the completion and approval of all site setup processes by Invicro. Patients underwent SPECT/CT imaging, with anatomical coverage typically extending from the salivary glands to the pelvis, following the administration of a targeted 7.4±10% GBq of ^177Lu-PSMA-I&T at cycle 1. SPECT/CT imaging was performed at four timepoints: 4 h, 24 h, 48 h, and 168 h post-injection. Additionally, a subset of patients imaged at Cycle 1 (16 out of 27), were also imaged at Cycle 3 (Table 2).
The imaging data was analyzed using Invicro's VivoQuant software, a validated software used in a 21 CFR § 11-compliant workflow. The general quantification approach was based on the principles detailed in the Medical Internal Radiation Dose (MIRD) Pamphlet No. 16, No 23, and No 26 as appropriate.
Volume of interest (VOI) (kidneys, bladder, liver, lumbar vertebrae L2-L4, lacrimal glands, salivary glands [parotid and submandibular glands], and whole body) were delineated on each dataset by a trained image analyst. […] Organs were segmented either by drawing the entire contour of the organ, or by placing a sphere in a representative region of the organ and then multiplying by the organ's effective mass (based on patient's height and weight). Segmentation methods for each organ are specified in Table 3 and were consistently applied to each patient.
Clearance of the radiopharmaceutical was derived from a data-appropriate fit of each organ's TAC. Depending on the TAC's shape, the data was fitted with the sum of one, two, or three exponentials, or using a rise and fall model. Fitting was performed with in-house Python software. TIACs were calculated through analytical integration of the curve fit extrapolated to infinity. […] A whole-body TAC was derived from delineating the imaged body. The remainder activity was determined by subtracting the cumulative organ TIACs from the whole body TIAC.
Organ TIACs were input into OLINDA 2.2.3 for the computation of organ and whole-body absorbed doses, using International Commission on Radiological Protection (ICRP)-103 weighing factors. The ICRP-89 derived male phantom was used for dose estimation. Organs and body mass as defined by ICRP-89 were scaled based on height and mass using patient effective mass.^4 The voiding bladder model as implemented in OLINDA was used to determine bladder TIAC, assuming a voiding interval of 4 hours. The human alimentary tract model (HAT model) described in ICRP 100 and implemented in OLINDA was used to compute doses to the small intestine, right colon, left colon and rectum for patients showing clearance through the GI tract. The fraction of injected activity (fIA) cleared via the GI tract was determined by taking the peak fIA in the GI tract over all the imaging timepoints. […] The Red Marrow mass in L2-L4 was assumed to be 6.7% of the total red marrow mass.

[1] = Stomach Wall, 16 patients imaged at cycle 1 and 3
[2] = Testes, 16 patients imaged at cycle 1 and 3
[3] = Thymus, 16 patients imaged at cycle 1 and 3
[4] = Thyroid, 16 patients imaged at cycle 1 and 3
[5] = Total Body, 16 patients imaged at cycle 1 and 3
[6] = Urinary Bladder wall, 16 patients imaged at cycle 1 and 3

## O=C([O-])CC[C@H](NC(=O)N[C@@H](CCCCNC(=O)CCCCCCC(=O)NCCCC[C@@H](NC(=O)[C@@H](Cc1ccccc1)NC(=O)[C@@H](Cc1ccc(O)c(I)c1)NC(=O)CC[C@H](C(=O)[O-])N1CCN(CC(=O)[O-])CCN(CC(=O)[O-])CCN(CC(=O)[O-])CC1)C(=O)[O-])C(=O)[O-])C(=O)[O-].[177Lu+3].[H+].[H+].[H+].[H+].[H+] [^177Lu-PSMA I&T, (3S,7S,26R,29R,32R,37R)-29-benzyl-32-(4-hydroxy-3-iodobenzyl)-5,13,20,28,31,34-hexaoxo-37-(4,7,10-tris(carboxymethyl)-1,4,7,10-tetraazacyclododecan-1-yl)-4,6,12,21,27,30,33-heptaazaheptatriacontane-1,3,7,26,37-pentacarboxylic acid; lutetium-177 (III)]
Spleen
  Absorbed Dose, Mean: 0.03 Gy/GBq
  Absorbed Dose, max: 0.11 Gy/GBq
  Absorbed Dose, median: 0.02 Gy/GBq
  Absorbed Dose, min: 0.01 Gy/GBq
Spleen, N = 16
  Absorbed Dose in Cycle 1, Mean: 0.03 Gy/GBq
  Absorbed Dose in Cycle 1, max: 0.11 Gy/GBq
  Absorbed Dose in Cycle 1, min: 0.01 Gy/GBq
[1]
  Absorbed Dose in Cycle 1, Mean: 0.02 Gy/GBq
  Absorbed Dose in Cycle 1, max: 0.07 Gy/GBq
  Absorbed Dose in Cycle 1, min: 0.00 Gy/GBq
Stomach Wall
  Absorbed Dose, Mean: 0.02 Gy/GBq
  Absorbed Dose, max: 0.07 Gy/GBq
  Absorbed Dose, median: 0.01 Gy/GBq
  Absorbed Dose, min: 0.00 Gy/GBq
Stomach Wall, N = 16
  Absorbed Dose in Cycle 1, Mean: 0.02 Gy/GBq
  Absorbed Dose in Cycle 1, max: 0.07 Gy/GBq
  Absorbed Dose in Cycle 1, min: 0.00 Gy/GBq
[2]
  Absorbed Dose in Cycle 1, Mean: 0.01 Gy/GBq
  Absorbed Dose in Cycle 1, max: 0.07 Gy/GBq
  Absorbed Dose in Cycle 1, min: 0.00 Gy/GBq
Testes
  Absorbed Dose, Mean: 0.01 Gy/GBq
  Absorbed Dose, max: 0.07 Gy/GBq
  Absorbed Dose, median: 0.01 Gy/GBq
  Absorbed Dose, min: 0.00 Gy/GBq
Testes, N = 16
  Absorbed Dose in Cycle 1, Mean: 0.01 Gy/GBq
  Absorbed Dose in Cycle 1, max: 0.07 Gy/GBq
  Absorbed Dose in Cycle 1, min: 0.00 Gy/GBq
[3]
  Absorbed Dose in Cycle 1, Mean: 0.01 Gy/GBq
  Absorbed Dose in Cycle 1, max: 0.07 Gy/GBq
  Absorbed Dose in Cycle 1, min: 0.00 Gy/GBq
Thymus
  Absorbed Dose, Mean: 0.01 Gy/GBq
  Absorbed Dose, max: 0.07 Gy/GBq
  Absorbed Dose, median: 0.01 Gy/GBq
  Absorbed Dose, min: 0.00 Gy/GBq
Thymus, N = 16
  Absorbed Dose in Cycle 1, Mean: 0.01 Gy/GBq
  Absorbed Dose in Cycle 1, max: 0.07 Gy/GBq
  Absorbed Dose in Cycle 1, min: 0.00 Gy/GBq
[4]
  Absorbed Dose in Cycle 1, Mean: 0.01 Gy/GBq
  Absorbed Dose in Cycle 1, max: 0.07 Gy/GBq
  Absorbed Dose in Cycle 1, min: 0.00 Gy/GBq
Thyroid
  Absorbed Dose, Mean: 0.01 Gy/GBq
  Absorbed Dose, max: 0.07 Gy/GBq
  Absorbed Dose, median: 0.01 Gy/GBq
  Absorbed Dose, min: 0.00 Gy/GBq
Thyroid, N = 16
  Absorbed Dose in Cycle 1, Mean: 0.01 Gy/GBq
  Absorbed Dose in Cycle 1, max: 0.07 Gy/GBq
  Absorbed Dose in Cycle 1, min: 0.00 Gy/GBq
[5]
  Absorbed Dose in Cycle 1, Mean: 0.02 Gy/GBq
  Absorbed Dose in Cycle 1, max: 0.09 Gy/GBq
  Absorbed Dose in Cycle 1, min: 0.01 Gy/GBq
Total Body
  Absorbed Dose, Mean: 0.02 Gy/GBq
  Absorbed Dose, max: 0.09 Gy/GBq
  Absorbed Dose, median: 0.02 Gy/GBq
  Absorbed Dose, min: 0.01 Gy/GBq
Total Body, N = 16
  Absorbed Dose in Cycle 1, Mean: 0.02 Gy/GBq
  Absorbed Dose in Cycle 1, max: 0.09 Gy/GBq
  Absorbed Dose in Cycle 1, min: 0.01 Gy/GBq
[6]
  Absorbed Dose in Cycle 1, Mean: 0.40 Gy/GBq
  Absorbed Dose in Cycle 1, max: 0.47 Gy/GBq
  Absorbed Dose in Cycle 1, min: 0.33 Gy/GBq
Urinary Bladder wall
  Absorbed Dose, Mean: 0.41 Gy/GBq
  Absorbed Dose, max: 0.50 Gy/GBq
  Absorbed Dose, median: 0.41 Gy/GBq
  Absorbed Dose, min: 0.33 Gy/GBq
Urinary Bladder wall, N = 16
  Absorbed Dose in Cycle 1, Mean: 10.40 Gy/GBq
  Absorbed Dose in Cycle 1, max: 0.47 Gy/GBq
  Absorbed Dose in Cycle 1, min: 0.33 Gy/GBq
